Experimental data taken from ChEMBL document CHEMBL1201862, “PubChem BioAssay data set” (2004).
Several values for one entry are separate records, joined by “and”; a condition that tells them apart may be missing. Equal values may be shown once.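 Five concentrations, 48 hours, 96-well plates. The concentration for 50% growth inhibition is given as GI50.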 Activity calls are given as the source filed them. Cut-off read from the data, not from the text of the source: active = GI50 up to about 1.1 µM and inactive = higher.

Legend:
Assay in all cases: NCI tumour cell line growth inhibition, 48 h
OVCAR-3 = tested on: OVCAR-3
HT-29 = tested on: HT-29
NCI-H23 = tested on: NCI-H23
UO-31 = tested on: UO-31
A549 = tested on: A549
SNB-19 = tested on: SNB-19
IGROV-1 = tested on: IGROV-1
COLO 205 = tested on: COLO 205
SK-MEL-5 = tested on: SK-MEL-5
U-251 = tested on: U-251
K562 = tested on: K562
SF-539 = tested on: SF-539
SF-268 = tested on: SF-268
SW-620 = tested on: SW-620
KM12 = tested on: KM12
TK-10 = tested on: TK-10
NCI-H460 = tested on: NCI-H460
OVCAR-5 = tested on: OVCAR-5
SK-OV-3 = tested on: SK-OV-3
UACC-62 = tested on: UACC-62

Structure (SMILES) | GI50 (OVCAR-3) | GI50 (HT-29) | GI50 (NCI-H23) | GI50 (UO-31) | GI50 (A549) | GI50 (SNB-19) | GI50 (IGROV-1) | GI50 (COLO 205) | GI50 (SK-MEL-5) | GI50 (U-251) | GI50 (K562) | GI50 (SF-539) | GI50 (SF-268) | GI50 (SW-620) | GI50 (KM12) | GI50 (TK-10) | GI50 (NCI-H460) | GI50 (OVCAR-5) | GI50 (SK-OV-3) | GI50 (UACC-62)
CCNC(=O)c1c(O)nc2ccccc2c1O | 61.9 µM (inactive) | 46.2 µM (inactive) | > 100 µM (inactive) | 73.5 µM (inactive) | 55.6 µM (inactive) | 83.9 µM (inactive) | 39.4 µM (inactive) | 56.9 µM (inactive) | 43.5 µM (inactive) | 29.5 µM (inactive) | 39.8 µM (inactive) | > 100 µM (inactive) | 63.4 µM (inactive) | 43.1 µM (inactive) | 97.7 µM (inactive) | 50.6 µM (inactive) | 34.9 µM (inactive) | 42.4 µM (inactive) | – | –
OC(c1cc(C(F)(F)F)nc2c(Cl)cc(Cl)cc12)C1CCCCN1 (stereo not given) | 3.53 µM (inactive) | – | 8.55 µM (inactive) | 0.906 µM (active) | 20.5 µM (inactive) | > 36.5 µM (inactive) | 6.4 µM (inactive) | 3.22 µM (inactive) | 8.65 µM (inactive) | 25.4 µM (inactive) | 5.22 µM (inactive) | 14 µM (inactive) | 16.8 µM (inactive) | 5.89 µM (inactive) | 6.3 µM (inactive) | – | 6.82 µM (inactive) | > 35 µM (inactive) | 12.3 µM (inactive) | > 32.6 µM (inactive)
Nc1nc(N)c2cc(Sc3ccc4nc(N)nc(N)c4c3)ccc2n1 | > 31.6 µM (inactive) | 0.0933 µM (active) | – | > 100 µM (inactive) | < 0.01 µM (active) | 4.23 µM (inactive) | 0.514 µM (active) | 10.9 µM (inactive) | – | > 100 µM (inactive) | < 0.01 µM (active) | > 100 µM (inactive) | 0.136 µM (active) | – | 2.15 µM (inactive) | > 100 µM (inactive) | < 0.0145 µM (active) | > 100 µM (inactive) | > 100 µM (inactive) | –
C=C1c2c(cc3c(c2O)c(=O)c2ccccc2n3C)OC1(C)C | > 100 µM (inactive) | 37.7 µM (inactive) | 7.89 µM (inactive) | > 100 µM (inactive) | – | 34.4 µM (inactive) | 32.7 µM (inactive) | > 100 µM (inactive) | > 100 µM (inactive) | 50.1 µM (inactive) | > 10 µM (inactive) | 35.2 µM (inactive) | 31.6 µM (inactive) | > 100 µM (inactive) | – | 77.6 µM (inactive) | 59 µM (inactive) | – | 20 µM (inactive) | > 100 µM (inactive)
CC1(O)OC(=O)C2=C1CCC1C2CCC2(C)C(O)CCC12 (stereo not given) | > 100 µM (inactive) | > 100 µM (inactive) | > 100 µM (inactive) | > 100 µM (inactive) | > 100 µM (inactive) | > 100 µM (inactive) | > 100 µM (inactive) | – | > 100 µM (inactive) | > 100 µM (inactive) | > 100 µM (inactive) | > 100 µM (inactive) | > 100 µM (inactive) | > 100 µM (inactive) | > 100 µM (inactive) | > 100 µM (inactive) | > 100 µM (inactive) | > 100 µM (inactive) | – | 46.3 µM (inactive)
O=C(NC(Cc1ccc(I)cc1)C(=O)O)c1ccc(I)cc1 (stereo not given) | 41.5 µM (inactive) | > 100 µM (inactive) | > 80.2 µM (inactive) | 14.5 µM (inactive) | 98.6 µM (inactive) | 54.7 µM (inactive) | > 24.4 µM (inactive) | > 100 µM (inactive) | > 75.3 µM (inactive) | 62.1 µM (inactive) | 59.6 µM (inactive) | > 74 µM (inactive) | > 60 µM (inactive) | – | > 100 µM (inactive) | – | 57.9 µM (inactive) | > 100 µM (inactive) | > 100 µM (inactive) | 29.6 µM (inactive)
COc1ccccc1C1C(Cl)C(=O)N1n1cnc2ccccc2c1=O (stereo not given) | > 100 µM (inactive) | > 100 µM (inactive) | > 100 µM (inactive) | 45.6 µM (inactive) | > 100 µM (inactive) | 75 µM (inactive) | > 100 µM (inactive) | > 100 µM (inactive) | > 100 µM (inactive) | 48.3 µM (inactive) | > 100 µM (inactive) | – | > 100 µM (inactive) | > 100 µM (inactive) | > 100 µM (inactive) | > 100 µM (inactive) | > 100 µM (inactive) | > 100 µM (inactive) | > 100 µM (inactive) | > 100 µM (inactive)
COc1cc(C2C(C(=O)O)=C(COC(C)=O)Oc3cc4c(cc32)OCO4)cc(OC)c1OC (stereo not given) | > 100 µM (inactive) | > 100 µM (inactive) | > 100 µM (inactive) | > 100 µM (inactive) | > 100 µM (inactive) | > 100 µM (inactive) | > 100 µM (inactive) | > 100 µM (inactive) | > 100 µM (inactive) | > 100 µM (inactive) | > 100 µM (inactive) | – | – | > 100 µM (inactive) | – | > 100 µM (inactive) | > 100 µM (inactive) | > 100 µM (inactive) | > 100 µM (inactive) | > 100 µM (inactive)
c1c2c(cc(-n3nnc4c3CCCCCC4)c1-n1nnc3c1CCCCCC3)CCCCCC2 | 12.1 µM (inactive) | 6.93 µM (inactive) | > 10 µM (inactive) | 5.4 µM (inactive) | – | 12.8 µM (inactive) | 18.3 µM (inactive) | – | 11.7 µM (inactive) | 10.1 µM (inactive) | 4.36 µM (inactive) | – | 9.46 µM (inactive) | 11.2 µM (inactive) | 11.8 µM (inactive) | 12.6 µM (inactive) | 6.3 µM (inactive) | 15.8 µM (inactive) | 14.8 µM (inactive) | 12.4 µM (inactive)
COc1ccc(/C=C2\CCNC2=O)cc1 | > 100 µM (inactive) | > 100 µM (inactive) | > 100 µM (inactive) | 75.2 µM (inactive) | > 100 µM (inactive) | > 100 µM (inactive) | > 100 µM (inactive) | > 100 µM (inactive) | > 100 µM (inactive) | > 100 µM (inactive) | > 100 µM (inactive) | > 76.6 µM (inactive) | > 100 µM (inactive) | > 100 µM (inactive) | > 100 µM (inactive) | – | > 100 µM (inactive) | > 100 µM (inactive) | > 100 µM (inactive) | > 100 µM (inactive)
COc1ccc2c3c1OC1C(F)C=CC4(O)C(C2)NCCC314 (stereo not given) | 1.87 µM (inactive) | 2.54 µM (inactive) | 1.92 µM (inactive) | 1.55 µM (inactive) | 7.23 µM (inactive) | 1.81 µM (inactive) | 4.81 µM (inactive) | 1.44 µM (inactive) | 3.94 µM (inactive) | 2.2 µM (inactive) | 0.805 µM (active) | – | 2.59 µM (inactive) | 1.37 µM (inactive) | 3.33 µM (inactive) | 3.51 µM (inactive) | 4.97 µM (inactive) | 3.2 µM (inactive) | 2.92 µM (inactive) | 3.37 µM (inactive)
Clc1ccc(C(SCc2ccccc2)SCc2ccccc2)cc1 | > 10 µM (inactive) | > 10 µM (inactive) | > 10 µM (inactive) | > 10 µM (inactive) | > 10 µM (inactive) | > 10 µM (inactive) | > 10 µM (inactive) | > 10 µM (inactive) | > 10 µM (inactive) | > 10 µM (inactive) | > 10 µM (inactive) | > 10 µM (inactive) | > 10 µM (inactive) | > 10 µM (inactive) | > 10 µM (inactive) | > 10 µM (inactive) | > 10 µM (inactive) | – | > 10 µM (inactive) | > 10 µM (inactive)
Cc1cc2c(cc1C)N1Cc3c(ccc(C)c3C)N(C2)C1.Cc1cc2c(cc1C)N1Cc3cc(C)c(C)cc3N(C2)C1 | > 100 µM (inactive) | > 100 µM (inactive) | 92.5 µM (inactive) | – | > 100 µM (inactive) | > 100 µM (inactive) | > 100 µM (inactive) | > 100 µM (inactive) | > 100 µM (inactive) | > 100 µM (inactive) | 70.8 µM (inactive) | > 100 µM (inactive) | > 100 µM (inactive) | > 100 µM (inactive) | > 100 µM (inactive) | > 100 µM (inactive) | > 100 µM (inactive) | – | > 100 µM (inactive) | > 100 µM (inactive)
O=c1c(-c2ccc(O)cc2)coc2cc(O)cc(O)c12 [GENISTEIN] | – | > 100 µM (inactive) | > 100 µM (inactive) | 24.9 µM (inactive) | 62.4 µM (inactive) | 92 µM (inactive) | 71.6 µM (inactive) | > 100 µM (inactive) | > 100 µM (inactive) | > 100 µM (inactive) | > 100 µM (inactive) | > 100 µM (inactive) | > 100 µM (inactive) | 49.2 µM (inactive) | > 100 µM (inactive) | > 100 µM (inactive) | 42 µM (inactive) | > 100 µM (inactive) | – | > 100 µM (inactive)
COc1cc(NC(C)CCCN)c2ncccc2c1 (stereo not given) [PRIMAQUINE PHOSPHATE] | 22.6 µM (inactive) and 43.7 µM (inactive) | 37.1 µM (inactive) and 28.8 µM (inactive) | > 100 µM (inactive) and > 90.6 µM (inactive) | – | > 100 µM (inactive) | – | 51.4 µM (inactive) and > 88.7 µM (inactive) | 17.8 µM (inactive) and 32.5 µM (inactive) | 29.8 µM (inactive) and 17.8 µM (inactive) | – | 28.9 µM (inactive) and 20.9 µM (inactive) | > 100 µM (inactive) | 94.4 µM (inactive) and 79.3 µM (inactive) | 52.2 µM (inactive) and 73.8 µM (inactive) | > 81.5 µM (inactive) and 73.3 µM (inactive) | 49.8 µM (inactive) and > 94.4 µM (inactive) | – | > 91 µM (inactive) and > 83.4 µM (inactive) | – | –
